Reference: PMC10180197, “Novel Pyrimidine Derivatives as Antioxidant and Anticancer Agents: Design, Synthesis and Molecular Modeling Studies” (Molecules, 2023)
Each block holds one compound with its values, some of them ahead of it.

What was measured:
[1] = Experimental determination of lipophilicity as RM values (RP-TLC); type: physicochemical; conditions: methanol/water 70/30 v/v, 24 °C, SD < 10%
Source text: Lipophilicity is an important physicochemical parameter of a drug candidate, linking solubility and membrane permeability with the ADMET (absorption, distribution, metabolism, elimination and toxicity) properties and the overall suitability of a molecule. Reversed-phase thin-layer chromatography was the method used to experimentally determine the lipophilic character of the synthesized compounds as RM values (Table 2). Lipophilicity was also theoretically calculated as clog P values using the Bio-Loom program of BioByte Corp (http://www.biobyte.com/, (accessed on 1 March 2023)). An attempt was made to correlate the experimental RM values with the theoretically calculated clog P values (Table 2). […] This disagreement could be attributed to several factors, e.g., different solvation, silanophilic interactions and hydrogen bonding.
Lipophilicity as RM values was determined through reversed-phase TLC (RP-TLC) on silica gel plates impregnated with 5% v/v liquid paraffin in light petroleum ether. Methanol/water mixture (70/30, v/v) was used as mobile phase. Closed chromatography tanks saturated with the mobile phase at 24 °C were used for the development of the plates while the spots were detected under UV light. For the determination of RM values, five individual measurements of Rf values were recorded, and the RM values were derived from the following Equation (1). (1) RM=log1/Rf−1

soybean lipoxygenase = target: T1, soybean lipoxygenase (Glycine max, UniProt P08170); experiment: Inhibition of soybean lipoxygenase; type: biochemical; conditions: 100 μM; cells of the mixed column without μM; read-out: LOX % Inhibition 100 μM
T1 construct: purchased Sigma Aldrich- Merck KGaA, Darmstadt, Germany
T1 sequence (P08170 1-839): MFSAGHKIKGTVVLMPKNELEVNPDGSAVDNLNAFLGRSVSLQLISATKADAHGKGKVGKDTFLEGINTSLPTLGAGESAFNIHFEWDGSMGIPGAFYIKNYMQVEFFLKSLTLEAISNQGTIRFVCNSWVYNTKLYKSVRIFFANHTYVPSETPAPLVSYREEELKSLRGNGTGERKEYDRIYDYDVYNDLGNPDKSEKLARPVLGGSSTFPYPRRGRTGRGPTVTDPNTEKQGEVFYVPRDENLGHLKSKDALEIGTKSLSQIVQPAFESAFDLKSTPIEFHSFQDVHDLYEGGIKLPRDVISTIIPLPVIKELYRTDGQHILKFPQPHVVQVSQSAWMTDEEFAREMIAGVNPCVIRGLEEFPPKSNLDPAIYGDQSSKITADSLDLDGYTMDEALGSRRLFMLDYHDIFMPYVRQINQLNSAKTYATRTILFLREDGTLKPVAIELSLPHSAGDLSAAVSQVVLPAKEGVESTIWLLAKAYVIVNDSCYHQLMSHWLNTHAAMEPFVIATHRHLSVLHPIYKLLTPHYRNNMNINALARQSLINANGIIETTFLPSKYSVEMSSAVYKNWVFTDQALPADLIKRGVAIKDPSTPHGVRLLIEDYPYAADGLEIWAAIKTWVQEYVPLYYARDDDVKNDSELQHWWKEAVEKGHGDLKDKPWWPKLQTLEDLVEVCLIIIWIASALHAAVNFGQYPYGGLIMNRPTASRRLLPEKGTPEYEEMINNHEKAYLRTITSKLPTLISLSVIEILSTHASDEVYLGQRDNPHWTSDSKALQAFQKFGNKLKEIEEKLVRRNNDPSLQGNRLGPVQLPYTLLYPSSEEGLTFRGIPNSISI
Source text: Lipoxygenase (LOX) is the key enzyme in the biosynthesis of inflammatory mediators; thus, it is considered a target for inflammatory diseases. Soybean LOX is a plant enzyme that has been used widely as a prototype for studying the functional and structural properties of the homologous family of lipoxygenases, presenting satisfactory homology with the human 5-LOX [42]. Linoleic acid is the most common substrate in plant LOX. […] Lipophilicity is considered one of the most important parameters with regard to LOX inhibitors according to the literature.
In vitro study was performed as reported previously by our group. In this experiment, 10 μL of the tested compound (from the stock solution) were incubated with 100 μL sodium linoleate (diluted in Tris buffer), 200 μL LOX solution (1:9 × 10^−4 w/v in saline) and 690 μL Tris buffer (pH 9.0) at room temperature. The absorbance was measured at 234 nm, where the change of absorbance was recorded due to the formation of 13-hydroperoxy-linoleic acid. […] In order to determine the IC50 values, different concentrations were used.

[2] = Reducing activity of the stable radical DPPH
Description: All the synthesized compounds were studied for their ability to interact with the stable free 2,2-diphenyl-1-picrylhydrazyl radical (DPPH) at a concentration of 100 μM after 20 min and 60 min (Table 4). This assay is based on the reduction of DPPH by transferring one electron from the antioxidant.
In vitro study was performed as reported previously by our group. In this experiment, 20 μL of the tested compound (from the stock solution), 980 μL EtOH and 1 mL ethanolic solution of DPPH (100 μM) were added in a testing tube in a final volume of 2 mL. The free radical scavenging ability was evaluated by recording the change of absorbance at 517 nm, produced by the reduction of DPPH, after 20 and 60 min at room temperature.

[3] = MTT cell viability assay, HaCaT; type: cell-based, human; conditions: human, HaCaT cells (epidermal keratinocyte cell line), 100 μΜ
Description: The MTT (3-(4,5-dimethylthiazol-2-yl)-2,5-diphenyltetrazolium bromide) assay is a colorimetric method that is used for the evaluation of cell viability. MTT is converted into colored formazan crystals, indicating the activity of mitochondria and therefore the viability of the cells. Unlike dead cells, the metabolic processes of living cells are functional, meaning that the dehydrogenase enzymes are able to reduce the yellow MTT salt solution to purple crystals, at 37 °C. The intensity of the sample’s color, due to the amount of formazan crystals, is proportional to the number of the living cells in it. Additionally, the colored product is dissolved in various solubilizing agents, such as dimethyl sulfoxide (DMSO). The colored products can be quantitatively measured at 450 nm with a plate reader spectrophotometer. In this study, the human epidermal keratinocyte cell line (HaCaT) was treated with different concentrations (100 μM, 50 μM, 10 μM and 1 μM) of the tested compounds and then the viability rates at each effect were calculated.
(§1) Τhe MTT assay was used to evaluate cell viability or cell toxicity, depending on the cell line being tested. The experimental procedure was performed in a 96-well plate, where the cells were seeded and incubated (37 °C, 5% CO2) for 24 h to grow and cover the surface of the wells. Τhe seeding concentrations for the HaCaT and A549 cells were 30 × 10^4 cells/mL and 20 × 10^4 cells/mL, respectively. After the first incubation, the solutions of the compounds (with different concentrations) were added to the adherent cells and incubated for another 24 h. The compounds were tested in triplicate against the control (only cells in medium), the blank (only medium) and the positive/negative control (cells in 100 μM silibinin solution) triplicates. Silibinin, a flavonoid with known anticancer activities, was used as a negative control for the cell viability assay and as positive control for the cytotoxicity testing assay. The light-sensitive MTT-standard solution was prepared by dissolving 1 mg/mL MTT in PBS and then filtrated (in a […] filter (Millipore, Carrigtwohill, Ireland)). On the third day, an appropriate amount of ΜΤΤ solution was added to each well and the plate was incubated for 4 h. During the incubation time, the formazan crystals were formed, which were then dissolved with 100 μL DMSO per well. Finally, the plate was stirred for 30 min, and the optical density (OD) was measured in a plate reader spectrophotometer at 450 nm.

A549 cell line = experiment: MTT cytotoxicity assay, A549; type: cell-based, human; conditions: Homo sapiens; A549, 100 μΜ, 24 h; read-out: % Cell Toxicity 100 μΜ
Description: The compounds of this study were also tested for their cytotoxic effects against the adenocarcinomic human alveolar basal epithelial cell line (A549) at different concentrations (100 μM, 75 μΜ, 50 μM and 10 μM).
as §1

[4] = Inhibition of AAPH induced linoleic acid peroxidation
Description: For the lipid peroxidation study, 2,2′-Azobis(2-methylpropionamidine) dihydrochloride (AAPH) was used as the generator of peroxy radicals and sodium linoleate as the substrate that undergoes peroxidation. The conversion of linoleic acid to 13-hydroperoxy-linoleic acid was recorded at 234 nm. The change of absorbance reflects the possible antioxidant activity of the tested compounds, in comparison with the reference compound, Trolox.
In vitro study was performed as reported previously by our group. AAPH was used as a free radical generator of alkyl peroxyl radicals. For this experimental procedure, 10 μL of the tested compound (from the stock solution), 10 μL sodium linoleate (16 mM), 50 μL AAPH (40 mM) and 930 μL phosphate-buffered solution (pH 7.4) were added in a UV cuvette (1 mL), pre thermostated at 37 °C. The ability of the compounds to prevent the oxidation of linoleic acid from alkyl peroxyl radicals was evaluated by recording the change of absorbance at 234 nm, due to the conversion of linoleic acid to 13-hydroperoxy-linoleic acid. Trolox was used as the reference.

melting point: 58 to 60 °C
RM [1]: −0.52
inhibition at 100 µM (soybean lipoxygenase): 6%
Structure (SMILES): O=C(/C=C/c1cccs1)c1ccccc1 [Compound 1c, (E)-1-phenyl-3-(thiophen-2-yl)prop-2-en-1-one]

Structure (SMILES): CC(Cc1ccc(O)c(O)c1)C(C)Cc1ccc(O)c(O)c1 (centres unmarked) [NDGA, Nordihydroguaretic acid, reference compound]
RA % 100 μM 20 min ([2]; 20 min): 87 - %
RA % 100 μM 60 min ([2]; 60 min): 93 - %

Structure (SMILES): COc1cc(C2Oc3cc([C@H]4Oc5cc(O)cc(O)c5C(=O)[C@@H]4O)ccc3OC2CO)ccc1O (some centres unmarked) [Silibinin, reference compound]
viability at 24 h, 100 μM [3]: 14.9%
cytotoxicity at 100 µM (A549 cell line): 96.4%

Structure (SMILES): Cc1c(C)c2c(c(C)c1O)CCC(C)(C(=O)O)O2 (centres unmarked) [Trolox, 6-Hydroxy-2,5,7,8-tetramethyl-chroman2-carboxylic acid, reference compound]
AAPH % Inhibition 100 μM [4]: - 92%
